This passage reports viability results from publication PMC12040169 (PLOS Biology, 2025).

The nature of the data set: in vitro. The following applies: human, hela cells, % viability.
On to `CN(C)c1ccc(CCNC(=O)c2c3c(nn2C)CCCC3)cc1` [CBK281824], for which the viability – broadly, a read-out of living cells in per cent, often relative to untreated cells – at 28.5 h, 10 µM came out at 96.4%.

In the case of `COc1ccc(C(NC(=O)N2CCN(C(=O)OCc3ccccc3)CC2)c2ccccc2C)cn1` (stereo not drawn) [CBK081469], the viability at 28.5 h, 10 µM stood at 91.2%.

As for `CCCNC(c1ccccc1)c1ccncc1` (stereo not drawn) [CBK028505], the viability at 28.5 h, 10 µM is 96.7%.

For the molecule `COc1cc(CNC(=O)c2cncc(-c3ccc(C(=O)N4CCOCC4)cc3)c2)cc(OC)c1OC` [CBK158632], the viability at 28.5 h, 10 µM came to 114%.

`Cc1cccc(C(=O)N2CCN(Cc3nc4ccccc4[nH]3)CC2)c1` [CBK304399]: the viability at 28.5 h, 10 µM came to 90.2%.

With `O=C(c1ccc(-c2nccnc2NCc2cccs2)cc1)N1CCOCC1` [CBK037059], the viability at 28.5 h, 10 µM was found to be 98.8%.

Consider `O=C(O)CCc1ccc(-c2cccs2)n1NC(=O)c1sc2ccccc2c1Cl` [CBK264782], for which the viability at 28.5 h, 10 µM stood at 96.1%.

Take `CC(=O)N1CCN(CCCC(c2ccc(F)cc2)c2ccc(F)cc2)CC1` [CBK024944C]: the viability at 28.5 h, 10 µM came to 101%.

Consider `COc1cc2c(cc1NC(=O)CSc1nc3ccccc3o1)oc1ccccc12` [CBK265154], for which the viability at 28.5 h, 10 µM is 105%.

For the molecule `Cc1c(-c2ccc(N(C)C)nc2)c(C(F)(F)F)nn1C` [CBK307320], the viability at 28.5 h, 10 µM is 83.5%.

Turning to `O=C(c1c[nH]c(C(=O)N2CCN(c3ncccn3)CC2)c1)c1ccc(Cl)cc1Cl` [CBK107418], the viability at 28.5 h, 10 µM is 89.4%.

For `CC1CCN(CCCNS(=O)(=O)c2ccc(N3CCCC3=O)cc2)CC1` [CBK304220], the viability at 28.5 h, 10 µM amounted to 95.9%.

As for `Oc1ccc(-n2ncc(-c3cccc(C(F)(F)F)c3)n2)cc1` [CBK112677], the viability at 28.5 h, 10 µM is 99.9%.

As to `COC(=O)c1cccn2cc(CN3CCOCC3(C)C)nc12` [CBK304879], the viability at 28.5 h, 10 µM stood at 93.8%.

`O=C(O)c1cc(C=Cc2ccc(Cl)c([N+](=O)[O-])c2)nc2ccccc12` [CBK297495]: the viability at 28.5 h, 10 µM is 104%.

For `CN1CCN(Cc2c(O)ccc3occ(C(=O)c4ccccc4)c23)CC1` [CBK111438], the viability at 28.5 h, 10 µM came to 98.2%.

For `Fc1ccccc1CN(CCCn1ccnc1)Cc1cccnc1` [CBK283099], the viability at 28.5 h, 10 µM turned out to be 90.4%.

As to `O=C(NC(=S)Nc1ccc2[nH]c(=O)[nH]c2c1)c1ccc(OCc2ccccc2)cc1` [CBK268908], the viability at 28.5 h, 10 µM is 83.8%.

For the molecule `Cc1cccc(CCNC(=O)N2CCN(Cc3ccccn3)CC2)c1` [CBK304057], the viability at 28.5 h, 10 µM worked out at 103%.

With `Cc1nc2ccc(C(=O)NC3CCN(Cc4ccccc4)CC3)cn2c1N(C)C(=O)c1cccs1` [CBK146529], the viability at 28.5 h, 10 µM was 99.9%.

On to `CCOC(=O)C1N(C)C(=O)C(Cc2c(Cl)cccc2Cl)=C(C)N1C` (stereo not drawn) [CBK112643], for which the viability at 28.5 h, 10 µM is 94.4%.

Consider `Cc1[nH]c(=O)c(C(=O)Nc2ccc(-n3ccc(C(N)=O)n3)cc2)cc1-c1ccccc1` [CBK291194], for which the viability at 28.5 h, 10 µM came to 109%.

`Oc1ccc(CN2CCN(Cc3ccc(Br)s3)CC2)c2cccnc12` [CBK295645]: the viability at 28.5 h, 10 µM was determined as 89.5%.

As for `Cc1cc(C)n(CCC(=O)N2CCC(c3ccncc3)CC2)n1` [CBK283529], the viability at 28.5 h, 10 µM came to 94.1%.

Take `CC1CCC(C(=O)NC(Cc2ccccc2)C(=O)O)CC1` (stereo not drawn) [CBK287080]: the viability at 28.5 h, 10 µM was found to be 90.5%.

For the molecule `Cc1ccc(C)c2nc3c(cc12)CN(C1CC1)C(=O)CO3` [CBK282858], the viability at 28.5 h, 10 µM is 94.8%.

Regarding `CC(C)C(C(=O)O)N1C(=O)C2C3C=CC(C3)C2C1=O` (stereo not drawn) [CBK286535], the viability at 28.5 h, 10 µM was 84%.

`Cn1ncc(N2CCC(CNC(=O)Cc3ccc(O)c(Cl)c3)C2)cc1=O` (stereo not drawn) [CBK307689]: the viability at 28.5 h, 10 µM amounted to 113%.

For `CC(C)[C@H](CO)n1c(=O)[nH]c2ncc(-c3cccc(CO)c3)nc21` [CBK065001], the viability at 28.5 h, 10 µM came to 96.1%.

Take `CN(C)CCNc1nc(-c2cncnc2)cnc1N` [CBK063661]: the viability at 28.5 h, 10 µM came to 97.8%.

For `Cn1nc(NC(=O)c2cnccn2)c2c(N3CCOCC3)cccc21` [CBK306716], the viability at 28.5 h, 10 µM is 100%.

With `CCOC(=O)C1CSCCN1C(=O)c1cc(C)n(-c2nccs2)c1C` (stereo not drawn) [CBK305884], the viability at 28.5 h, 10 µM is 75%.

As for `O=C(Nc1ccccn1)c1cc(O)c(OCc2ccccc2)cn1` [CBK287989], the viability at 28.5 h, 10 µM was 89.5%.

Regarding `Nc1c(N(CCO)C(=O)C2CCCC2)c(=O)[nH]c(=O)n1Cc1ccccc1` [CBK297490], the viability at 28.5 h, 10 µM turned out to be 97.3%.

Consider `COc1cccc(NC(=O)c2cc3ccccc3o/c2=N\O)c1` [CBK288387], for which the viability at 28.5 h, 10 µM was determined as 86%.

Turning to `CC1CCc2c(sc(NC(=O)c3cccs3)c2C(=O)N(C)C)C1` (stereo not drawn) [CBK307100], the viability at 28.5 h, 10 µM is 90.9%.

For the molecule `Cc1cc2ncc3c(n2n1)CC1CCC3N1Cc1ccc(F)c(F)c1` (stereo not drawn) [CBK284378], the viability at 28.5 h, 10 µM came to 90.9%.

For the molecule `CCCn1ncc(C(=O)NC(CC)c2cn3cccnc3n2)c1C` (stereo not drawn) [CBK307640], the viability at 28.5 h, 10 µM was 92.9%.

As to `COc1ccc(CCCC(=O)NCc2sc(-c3ccccc3)nc2C)cc1OC` [CBK092353], the viability at 28.5 h, 10 µM is 85.2%.

Take `COCCn1c(SC2CCN(C)C2=O)nc2ccccc21` (stereo not drawn) [CBK305131]: the viability at 28.5 h, 10 µM stood at 97.9%.

In the case of `CCCc1cc(C(=O)Nc2nccs2)cs1` [CBK288212], the viability at 28.5 h, 10 µM was found to be 83.9%.

In the case of `CC1(C)NC(=O)N(CC(O)CN(C2CCCCC2)C2CCCCC2)C1=O` (stereo not drawn) [CBK264578], the viability at 28.5 h, 10 µM was determined as 101%.

For `O=S1(=O)CCN(Cc2cn(-c3ccccc3)nn2)CC1` [CBK113103], the viability at 28.5 h, 10 µM was determined as 88.9%.

As for `COc1ccc2c(c1)C1(CC(=O)N(Cc3ccccc3)C1=O)C(=O)N2CC(=O)O` (stereo not drawn) [CBK076108], the viability at 28.5 h, 10 µM amounted to 92.5%.

Regarding `COC(=O)Nc1ccc(S(=O)(=O)Oc2ccc(C)cc2-n2nc3ccccc3n2)cc1` [CBK262183], the viability at 28.5 h, 10 µM came to 89.3%.

Take `CCN1CCN(C(=O)COc2cccnc2)CC1` [CBK200378]: the viability at 28.5 h, 10 µM turned out to be 94.8%.

As to `O=C(c1ccc2ccccc2c1)C12CN3CN(CN(C3)C1)C2` [CBK009031], the viability at 28.5 h, 10 µM came to 89.1%.

For `O=C(COc1ccccc1)Nc1nnc[nH]1` [CBK263898], the viability at 28.5 h, 10 µM was found to be 108%.

Turning to `COc1cccc(NC(=O)CC(CN2CCN(c3ccccc3)CC2)C(=O)O)c1` (stereo not drawn) [CBK286789], the viability at 28.5 h, 10 µM was 90.7%.

Consider `CC(=O)N1CC(C(=O)Nc2nc3c(C)cc(C)cc3s2)C1` [CBK281372], for which the viability at 28.5 h, 10 µM was 95.9%.

For the molecule `Cc1ccc(CN2CC(C(=O)N3CCC(C(=O)O)CC3)CC2=O)cc1` (stereo not drawn) [CBK300205], the viability at 28.5 h, 10 µM is 91.8%.

For `O=C(Nc1ccc(I)cc1C(=O)Nc1cccnc1)c1ccccc1Cl` [CBK266154], the viability at 28.5 h, 10 µM worked out at 98.5%.

For the molecule `c1cncc(-c2cncc(NCc3ccc4c(c3)OCO4)n2)c1` [CBK065313], the viability at 28.5 h, 10 µM was 94.6%.

As to `Cc1ccc(C(=O)Nc2noc3ccccc23)cc1` [CBK288124], the viability at 28.5 h, 10 µM was 88.9%.

Turning to `O=C(Cc1ccc([N+](=O)[O-])cc1)N/N=C/c1ccc(O)cc1` [CBK262152], the viability at 28.5 h, 10 µM was 84.5%.

Consider `COc1ccc(-c2nc3c(c(SCC(=O)O)n2)COC(C)(C)C3)cc1` [CBK286704], for which the viability at 28.5 h, 10 µM was found to be 107%.

For the molecule `Cc1ccc(-c2c(C(=O)NNC(=S)NCc3ccco3)csc2C)cc1` [CBK266992], the viability at 28.5 h, 10 µM was determined as 96.3%.

`CCOC(=O)C1CCN(S(=O)(=O)c2ccc(OC)c(C)c2C)CC1` [CBK268955]: the viability at 28.5 h, 10 µM was determined as 96.1%.

As for `CC(C)[C@H](CO)n1c(=O)[nH]c2ncc(-c3cccc(/C=C/C(=O)O)c3)nc21` [CBK065051], the viability at 28.5 h, 10 µM is 92.5%.

In the case of `Cc1cccn2cc(CCNC(=O)N[C@H](C)C(=O)N(C)C)nc12` [CBK304617], the viability at 28.5 h, 10 µM is 110%.

For the molecule `C=CCn1c(-c2sc(NC(=O)c3ccc(C)c(C)c3)nc2C)n[nH]c1=S` [CBK295294], the viability at 28.5 h, 10 µM worked out at 88.7%.

Consider `COc1ccccc1CCCNC(=O)c1csc(C(C)=O)c1` [CBK282513], for which the viability at 28.5 h, 10 µM is 98.8%.

Take `O=C(CCn1c(C(F)F)cc2cccnc21)NCc1ccc(F)cc1` [CBK285067]: the viability at 28.5 h, 10 µM stood at 102%.

Regarding `COc1cccc(OC)c1OCCN1CCC(NC(=O)Nc2ccc(Cl)cn2)CC1` [CBK051515], the viability at 28.5 h, 10 µM amounted to 94.4%.

Consider `COc1ccc2c(c1)C1(CC(=O)N(Cc3ccc(OC)c(OC)c3)C1=O)C(=O)N2C` (stereo not drawn) [CBK075157], for which the viability at 28.5 h, 10 µM came out at 94.4%.

On to `CCCCn1nccc1NC(=O)NC(C)c1ccncc1` (stereo not drawn) [CBK304840], for which the viability at 28.5 h, 10 µM is 99.2%.

With `CCN1CCN(CCCOc2ccccc2Cc2ccccc2)CC1` [CBK267379G], the viability at 28.5 h, 10 µM is 95%.

On to `COc1cc(/C=C2/SC(=O)NC2=O)cc(I)c1O` [CBK100075], for which the viability at 28.5 h, 10 µM is 92.1%.

On to `Cc1cc(C)nc(NC2=NC3CCCCC3N2C(=O)Nc2ccc(Cl)c(Cl)c2)n1` (stereo not drawn) [CBK266458], for which the viability at 28.5 h, 10 µM turned out to be 97.5%.

Turning to `Cc1cc(C)c2nc(O)nc(O)c2c1` [CBK017986], the viability at 28.5 h, 10 µM is 94.4%.

Turning to `CCc1nc(CNc2ccc(NC(C)=O)cc2Cl)cs1` [CBK305103], the viability at 28.5 h, 10 µM came to 102%.

As to `Cn1nnc2cc(NC(=O)NCc3csc(N4CCOCC4)n3)ccc21` [CBK307492], the viability at 28.5 h, 10 µM was 94.2%.

With `Cc1[nH]c2ccccc2c1C(=O)CSc1nc2ccccc2[nH]1` [CBK266494], the viability at 28.5 h, 10 µM was found to be 63.6%.

For `O=C(NCc1ccccc1)/C(=N\O)c1ccccc1` [CBK288427], the viability at 28.5 h, 10 µM came to 91.9%.

On to `Cc1ccc(Nc2nccc(C3CCCN(Cc4ccc5[nH]ccc5c4)C3)n2)nc1` (stereo not drawn) [CBK286122], for which the viability at 28.5 h, 10 µM was found to be 88%.

`Cc1csc(Sc2nccnc2NC(C)C)n1` [CBK115203]: the viability at 28.5 h, 10 µM is 88.8%.

As to `O=c1[nH]cccc1-c1noc(-c2cnccn2)n1` [CBK288538], the viability at 28.5 h, 10 µM was 90%.

Take `CCCCNC(=S)N1CC[C@@H]2CN(C)C[C@]2(c2ccc(OC)c(OC)c2)C1` [CBK075101T]: the viability at 28.5 h, 10 µM worked out at 100%.

As to `O[C@H]1CN[C@H](c2nc(-c3ccc(OC(F)(F)F)cc3)no2)C1` [CBK288836], the viability at 28.5 h, 10 µM stood at 112%.

For `Cc1cccc(C(=O)NNC(=O)c2cccc(Cl)c2)c1` [CBK261676], the viability at 28.5 h, 10 µM is 107%.

On to `CC(C)(C)c1cn(C[C@H]2CC3CCN2C[C@@H]3C(=O)NCc2ccc(F)cc2)nn1` (stereo partly drawn) [CBK289081], for which the viability at 28.5 h, 10 µM was 102%.
